Assay: xn = mol fraction of the nth substance listed
Conditions: Liquid, Vibrating tube method

C=C [ethene] + CCCCO
Conditions | mass density [kg/m3]
283.65 K, x1 = 0.17 | 781.4
283.65 K, x1 = 0.224 | 767.7
283.65 K, x1 = 0.322 | 743.7
283.65 K, x1 = 0.401 | 718.9
283.65 K, x1 = 0.47 | 695.8
283.65 K, x1 = 0.545 | 660.9
283.65 K, x1 = 0.98 | 323.2
283.65 K, x1 = 0.99 | 296.6
283.65 K, x1 = 0.994 | 287
290.8 K, x1 = 0.206 | 768.3
290.8 K, x1 = 0.265 | 752.1
290.8 K, x1 = 0.339 | 732
290.8 K, x1 = 0.43 | 707.5
290.8 K, x1 = 0.528 | 664.6
290.8 K, x1 = 0.622 | 624.4
290.8 K, x1 = 0.655 | 601.6
290.8 K, x1 = 0.691 | 585
290.8 K, x1 = 0.745 | 527.5

From the NIST ThermoML archive (doi:10.1016/j.fluid.2007.07.017)
